The test system of the experiment is rat model of AMI. Put plainly: Protective effect in rat model of AMI (coronary ligation, NBT staining, infarcted myocardium weight). It is filed as in vivo. As to conditions: for IMW / IMW/HW (%): SD male rats, 4 h after ligation.

Structures can show the parent of a compound that is named as a salt.

For `C[N+](C)(C)C[C@H](O)CC(=O)[O-]` [LC, Levocarnitine], under “900 mg/kg levocarnitine”, the “reduction of IMW/HW (%) in comparison with solvent control group” value is 22.9%. Also, the “IMW” value is listed as 139 ± 25.9 mg (LC 100 mg/kg i.p.), 141 ± 23.0 mg (LC 300 mg/kg i.p.), 139 ± 24.0 mg (LC 600 mg/kg i.p.) and 129 ± 23.8 mg (LC 900 mg/kg i.p.). Further, the “IMW/HW (%)” value is on record as 16.8 ± 3.33% (LC 100 mg/kg i.p.), 17.2 ± 3.04% (LC 300 mg/kg i.p.), 16.8 ± 3.10 % (LC 600 mg/kg i.p.) and 15.8 ± 3.10 % (LC 900 mg/kg i.p.).
On to `COc1ccc(CN2CCNCC2)c(OC)c1OC` [TMZ, trimetazidine hydrochloride], for which the “reduction of IMW/HW (%) in comparison with solvent control group” value (9 mg/kg trimetazidine, control 24.5%) was 34.7%. The “IMW” value by setting is: (TMZ 1 mg/kg i.p.) 177 ± 20.2 mg; (TMZ 3 mg/kg i.p.) 163 ± 20.2 mg; (TMZ 6 mg/kg i.p.) 132 ± 19.1 mg; (TMZ 9 mg/kg i.p.) 125 ± 15.2 mg. The “IMW/HW (%)” value (TMZ 1 mg/kg i.p.) was determined as 22.8 ± 3.40%; the “IMW/HW (%)” value (TMZ 3 mg/kg i.p.) worked out at 21.0 ± 2.60 %; the “IMW/HW (%)” value (TMZ 6 mg/kg i.p.) is given as 17.0 ± 3.20 %; the “IMW/HW (%)” value (TMZ 9 mg/kg i.p., hydrochloride) is 16.0 ± 2.50 %; the “IMW/HW (%)” value (TMZ 9 mg/kg i.p., listed as trimetazidine, hydrochloride) is recorded as 16.0%.
